Source: US20030181389A1, “Therapeutic and prophylactic use of reduced forms of pharmaceutical compounds” (priority 2000, published 2003)
Marks after values point to notes of the source that are not given here.

Tests used:
[1] = oxygen superoxide scavenging (recent research); type: biochemical; conditions: stabilised leucomethylene blue
[2] = adrenochrome system: auto-oxidation of dl-epinephrine; type: biochemical; conditions: dl-epinephrine 500 μM, pH 10.2; for oxidation peak of Leucomethylene blue (665 nm) / effect on appearance of adrenochrome at 310 nm / oxidation peak of Leucothionine (605 nm): 50 μM; for appearance of adrenochrome (310 nm) in presence of leuco compound: leuco compound 50 μM; for appearance of adrenochrome (310 nm) in presence of leuco compound / effect on appearance of adrenochrome at 310 nm: 30° C.
Description: In another experiment, the results of the experiment in Example 1 above were confirmed by using the adrenochrome system. In this system, dl-epinephrine is auto-oxidised under alkaline conditions by a superoxide dependent pathway. The reaction rate of this reaction can be decreased or interrupted by the addition of SOD, which scavenges superoxide. […] In this system, the rate of auto-oxidation of dl-epinephrine is decreased by the presence of either leuco compound, while the leuco compounds themselves are oxidised by superoxide in a rate dependent manner.
In this experiment, dl-epinephrine (500 μM) was allowed to auto-oxidise in 50 mM sodium carbonate buffer (pH 10.2) containing EDTA (100 μM) at 30° C. under these conditions, epinephrine is oxidised to adrenochrome (310 or 485 nm increase in absorption).

[3] = direct oxidation of leuco compounds by potassium superoxide; type: biochemical; conditions: for final optical density leucomethylene blue (665 nm) / direct oxidation of the leuco compound by potassium superoxide / final optical density leucothionine (605 nm): approximately 10 μM, pH 7.8; for final optical density leucomethylene blue (665 nm) / final optical density leucothionine (605 nm): potassium superoxide; for colour change of the cell: after potassium superoxide addition; for direct oxidation of the leuco compound by potassium superoxide: EDTA 100 μM
Description: In a further experiment, potassium superoxide was added to a reaction cell containing buffers, EDTA and concentrations of leucothionine and leucomethylene blue. Direct oxidation of the leuco compounds was observed by superoxide.
Potassium superoxide was added directly to nitrogen gassed potassium phosphate buffer (pH 7.8) containing EDTA (100 μM) and approximately 10 μM concentration of leucothionine and leucomethylene blue.
Due to the effervescence of the cell, a known property of potassium superoxide in water, no measurements were possible in the first 4 minutes of the reaction.

[4] = xanthine/xanthine oxidase superoxide assay: oxidation of leuco compounds, with SOD added after sixth minute; type: biochemical; conditions: for effect of addition of SOD on rate of oxidation of the leuco compound: 5 units of SOD added after the sixth minute; for oxidation of leucomethylene blue (665 nm), rate of change of optical density / oxidation of leucothionine (605 nm), rate of change of optical density: 12.5 μM
Description: The principle upon which the following assay is based is that the enzyme xanthine oxidase acts on xanthine to oxidise xanthine and thereby to reduce ferricytochrome C by a mechanism which, at least partly, involves superoxide. Thus, the reduction (and increase) in optical density of ferricytochrome C is dependent on superoxide as a reductant. The inclusion of superoxide dismutase (“SOD”) in the assay serves to dismutate some of the available superoxide, thus causing a decrease in the rate of reduction of ferricytochrome C. […]
Superoxide is a single electron reductant or oxidant.
To explore the effect of leucothionine and leucomethylene blue, these compounds were mixed at 12.5 μM concentration in 50 mM potassium phosphate buffer (pH 7.8) with xanthine (50 μM) and EDTA (100 μM) buttermilk xanthine oxidase (around […]) was then added to give a rate of increase in absorbance of about 0.1 optical density units (for methylene blue at 665 nm and for thionine at 605 nm) per minute at 30° C. above controls using leucothionine or leucomethylene blue, potassium phosphate buffer, xanthine and EDTA alone.

[5] = system: haemoglobin; conditions: chronic toxicity studies, laboratory animals; cited from earlier work
[6] = minute 1, before SOD, pH 7.8, 30° C.
[7] = minute 2, before SOD, pH 7.8, 30° C.
[8] = minute 3, before SOD, pH 7.8, 30° C.
[9] = minute 4, before SOD, pH 7.8, 30° C.
[10] = minute 5, before SOD, pH 7.8, 30° C.
[11] = minute 6, before SOD, pH 7.8, 30° C.
[12] = minute 7, after addition of 5 units of SOD
[13] = minute 8, after addition of 5 units of SOD
[14] = minute 9, after addition of 5 units of SOD
[15] = minute 10, after addition of 5 units of SOD
[16] = minute 11, after addition of 5 units of SOD
[17] = minute 12, after addition of 5 units of SOD

## CN(C)c1ccc2c(c1)Sc1cc(N(C)C)ccc1N2 [leucomethylene blue]
[1]
  oxygen superoxide scavenging: powerful oxygen superoxide scavenger
[2]; 0 minutes
  oxidation peak of Leucomethylene blue (665 nm): 0.006
  appearance of adrenochrome (310 nm) in presence of leuco compound: 0.005
[2]
  effect on appearance of adrenochrome at 310 nm: effective in reducing the appearance of adrenochrome
[2]; 1 minute
  oxidation peak of Leucomethylene blue (665 nm): 0.093
  appearance of adrenochrome (310 nm) in presence of leuco compound: 0.031
[2]; 2 minutes
  oxidation peak of Leucomethylene blue (665 nm): 0.110
  appearance of adrenochrome (310 nm) in presence of leuco compound: 0.021
[2]; 3 minutes
  oxidation peak of Leucomethylene blue (665 nm): 0.120
  appearance of adrenochrome (310 nm) in presence of leuco compound: 0.030
[2]; 4 minutes
  oxidation peak of Leucomethylene blue (665 nm): 0.116
  appearance of adrenochrome (310 nm) in presence of leuco compound: 0.035
[2]; 5 minutes
  oxidation peak of Leucomethylene blue (665 nm): 0.121
  appearance of adrenochrome (310 nm) in presence of leuco compound: 0.031
[2]; 6 minutes
  oxidation peak of Leucomethylene blue (665 nm): 0.119
  appearance of adrenochrome (310 nm) in presence of leuco compound: 0.038
[3]; 0 minutes
  final optical density leucomethylene blue (665 nm): 0.015
[3]; 5 minutes
  final optical density leucomethylene blue (665 nm): 0.38
[3]; 6 minutes
  final optical density leucomethylene blue (665 nm): 0.44
[3]; 7 minutes
  final optical density leucomethylene blue (665 nm): 0.46
[3]; 8 minutes
  final optical density leucomethylene blue (665 nm): 0.44
[3]
  colour change of the cell: colourless to blue
  direct oxidation of the leuco compound by potassium superoxide: rapidly oxidised to their coloured oxidised states
[4]
  effect of addition of SOD on rate of oxidation of the leuco compound: decreased the rate of oxidation
[4]; [6]
  oxidation of leucomethylene blue (665 nm), rate of change of optical density: 0.096
[4]; [7]
  oxidation of leucomethylene blue (665 nm), rate of change of optical density: 0.102
[4]; [8]
  oxidation of leucomethylene blue (665 nm), rate of change of optical density: 0.110
[4]; [9]
  oxidation of leucomethylene blue (665 nm), rate of change of optical density: 0.101
[4]; [10]
  oxidation of leucomethylene blue (665 nm), rate of change of optical density: 0.099
[4]; [11]
  oxidation of leucomethylene blue (665 nm), rate of change of optical density: 0.103
[4]; [12]
  oxidation of leucomethylene blue (665 nm), rate of change of optical density: 0.030 *
[4]; [13]
  oxidation of leucomethylene blue (665 nm), rate of change of optical density: 0.017
[4]; [14]
  oxidation of leucomethylene blue (665 nm), rate of change of optical density: 0.014
[4]; [15]
  oxidation of leucomethylene blue (665 nm), rate of change of optical density: 0.013
[4]; [16]
  oxidation of leucomethylene blue (665 nm), rate of change of optical density: 0.010
[4]; [17]
  oxidation of leucomethylene blue (665 nm), rate of change of optical density: 0.010

## Nc1ccc2c(c1)Sc1cc(N)ccc1N2 [leucothionine]
[2]; 0 minutes
  oxidation peak of Leucothionine (605 nm): 0.007
  appearance of adrenochrome (310 nm) in presence of leuco compound: 0.005
[2]
  effect on appearance of adrenochrome at 310 nm: effective in reducing the appearance of adrenochrome
[2]; 1 minute
  oxidation peak of Leucothionine (605 nm): 0.083
  appearance of adrenochrome (310 nm) in presence of leuco compound: 0.034
[2]; 2 minutes
  oxidation peak of Leucothionine (605 nm): 0.121
  appearance of adrenochrome (310 nm) in presence of leuco compound: 0.027
[2]; 3 minutes
  oxidation peak of Leucothionine (605 nm): 0.110
  appearance of adrenochrome (310 nm) in presence of leuco compound: 0.033
[2]; 4 minutes
  oxidation peak of Leucothionine (605 nm): 0.114
  appearance of adrenochrome (310 nm) in presence of leuco compound: 0.034
[2]; 5 minutes
  oxidation peak of Leucothionine (605 nm): 0.116
  appearance of adrenochrome (310 nm) in presence of leuco compound: 0.028
[2]; 6 minutes
  oxidation peak of Leucothionine (605 nm): 0.120
  appearance of adrenochrome (310 nm) in presence of leuco compound: 0.032
[3]; 0 minutes
  final optical density leucothionine (605 nm): 0.035
[3]; 5 minutes
  final optical density leucothionine (605 nm): 0.42
[3]; 6 minutes
  final optical density leucothionine (605 nm): 0.45
[3]; 7 minutes
  final optical density leucothionine (605 nm): 0.45
[3]; 8 minutes
  final optical density leucothionine (605 nm): 0.46
[3]
  colour change of the cell: purple
  direct oxidation of the leuco compound by potassium superoxide: rapidly oxidised to their coloured oxidised states
[4]
  effect of addition of SOD on rate of oxidation of the leuco compound: decreased the rate of oxidation
[4]; [6]
  oxidation of leucothionine (605 nm), rate of change of optical density: 0.086
[4]; [7]
  oxidation of leucothionine (605 nm), rate of change of optical density: 0.093
[4]; [8]
  oxidation of leucothionine (605 nm), rate of change of optical density: 0.093
[4]; [9]
  oxidation of leucothionine (605 nm), rate of change of optical density: 0.095
[4]; [10]
  oxidation of leucothionine (605 nm), rate of change of optical density: 0.101
[4]; [11]
  oxidation of leucothionine (605 nm), rate of change of optical density: 0.096
[4]; [12]
  oxidation of leucothionine (605 nm), rate of change of optical density: 0.041 *
[4]; [13]
  oxidation of leucothionine (605 nm), rate of change of optical density: 0.009
[4]; [14]
  oxidation of leucothionine (605 nm), rate of change of optical density: 0.009
[4]; [15]
  oxidation of leucothionine (605 nm), rate of change of optical density: 0.011
[4]; [16]
  oxidation of leucothionine (605 nm), rate of change of optical density: 0.008
[4]; [17]
  oxidation of leucothionine (605 nm), rate of change of optical density: 0.009

## CN(C)c1ccc2nc3ccc(=[N+](C)C)cc-3sc2c1 [methylene blue]
[5]
  haematological toxicity on repeated administration of high doses: causes oxidation of haemoglobin to methaemoglobin and tissue accumulation of Heinz bodies
